From patent publication US20240343710A1, “HETEROCYCLIC COMPOUNDS AND METHODS OF USE THEREOF” (1cBio, Inc., priority 2023, published 2024)
Where a name gives a salt, the structure may show the parent alone. Read-outs that look alike come from different tables or passages of the source.

Assays:
recombinant human PARP1 = recombinant human PARP1 (Homo sapiens, UniProt P09874); assay: PARP1 fluorescence polarization binding assay; conditions: GST-tagged PARP1 20 nM, PARP1-FL probe 3 nM
Description: In some embodiments, the biological assay is described in the Examples herein. In some embodiments, the biological assay measures PARP-1 binding by way of fluorescence polarization measurements. In some embodiments, binding of a test compound to recombinant human PARP-1 reduces the amount of binding of a fluorescent probe, and consequently reduces the detected level of fluorescence polarization. In some test compound stock solutions are prepared in a solvent, e.g., DMSO, and are serially diluted into a range of concentrations, e.g., 15 concentrations, 14 concentrations, 13 concentrations, 12 concentrations, 11 concentrations, 10 concentrations, 9 concentrations, 8 concentrations, 7 concentrations, 6 concentrations, or 5 concentrations, by a dilution factor, e.g., a 10-fold dilution factor, a 9-fold dilution factor, an 8-fold dilution factor, a 7-fold dilution factor, a 6-fold dilution factor, a 5-fold dilution factor, a 4-fold dilution factor, a 3-fold dilution factor, or a 2-fold dilution factor. In some embodiments, the serial dilutions, e.g., 100 nL of serial dilution, 90 nL of serial dilution, 80 nL of serial dilution, 70 nL of serial dilution, 60 nL of serial dilution, 50 nL of serial dilution, 30 nL of serial dilution, 20 nL of serial dilution, or 10 nL of serial dilution, are added to a multi-welled plate, e.g., a 1536-well plate, a 384-well plate, or a 96-well plate. In some embodiments, PARP-1, e.g., GST-tagged PARP-1, is diluted in assay buffer, e.g., 50 μL of assay buffer, 40 μL of assay buffer, e.g., 30 μL of assay buffer, 20 μL of assay buffer, 10 μL of assay buffer, or 5 μL of assay buffer, and is added to the plate. In some embodiments, the plate is centrifuged, e.g., at 1000 rpm for 1 min, and incubated, e.g., incubated for 30 minutes at room temperature (RT). In some embodiments, a fluorescent probe, e.g., 10 μL of 6 nM PARP1-FL (TOCRIS, Cat #6461), is diluted in an assay buffer and is added to the plate. In some embodiments, the final concentrations of PARP-1 and fluorescent probe are 20 nM and 3 nM, respectively, in a total volume of 20 μL. In some embodiments, the plate is centrifuged, e.g., at 1000 rpm for 1 minute, and the assay plate is incubated, e.g., for 4 h at RT. In some embodiments, the samples in each well are read using a plate reader, e.g., an Envision instrument using excitation=480 nm, and emission wavelength=FITC FP-P pol 535 nm & FITC FP-S pol 535 nm). In some embodiments, percent inhibition is calculated from mP values using Inhibition (%)=[1−(mPc−mPL)/(mPH−mPL)]×100%, where mPc, mPL, and mPH are the mP values of test compound, Low controls, and High controls, respectively. In some embodiments, binding IC50 values are calculated using XLFit (equation 201: y=A+((B−A)/(1+((x/C)^D))), where A=bottom, B=top, C=IC50, and D=slope) with a floating top and bottom for curves.
Compounds of the present disclosure were tested in a PARP1 fluorescence polarization binding assay at Pharmaron (Beijing, P.R. China). In this biochemical assay, binding of test compound to recombinant human PARP1 reduces the amount of binding of a fluorescent probe, and consequently reduces the detected level of fluorescence polarization. Test compound stock solutions were prepared in DMSO and then serially diluted into 10 concentrations by 3-fold dilution in a 384-well plate using a TECAN EVO200. Alternatively, a single concentration was prepared. 60 nL of each dilution was transferred to the plate using an Echo550 (Labcyte), and then 10 μL 40 nM GST-tagged PARP1 (BPS Bioscience, Cat #80501), diluted in assay buffer (50 mM Tris pH 8.0, 0.001% Triton X-100, 10 mM MgCl2, 150 mM NaCl), was added to the plate. After a centrifugation at 1000 rpm for 1 min, the assay plate was incubated for 30 min at RT. 10 μL 6 nM PARP1-FL (TOCRIS, Cat #6461), diluted using assay buffer, was then added to the plate. The final concentrations of PARP1 and PARP1-FL were 20 nM and 3 nM, respectively, in a total volume of 20 μL. […]

recombinant human PARP2 = recombinant human PARP2 (Homo sapiens, UniProt Q9UGN5); assay: PARP2 fluorescence polarization binding assay; conditions: read-out: PARP2 % inh at 10 μM
[1] = system: DLD-1 wild-type colorectal adenocarcinoma cells; assay: Cell viability assay (Cell Titer-Glo, 7 days), DLD-1 wild-type; format: cell-based; conditions: Homo sapiens, 168 h, DLD-1 wild-type cells, read-out: DLD-1 wild-type % inh at 10 μM
Text: (§1) In some embodiments, the biological assay measures the effects that compounds of the present disclosure may have on the viability of cells, e.g., the viability of cancer cells. In some embodiments, DLD-1 wild-type and DLD-1 BRCA2(−/−) colorectal adenocarcinoma cells, an isogenic pair of cell lines differing in the presence and absence, respectively, of both BRCA2 alleles, are used to measure the effect of the disclosed compounds on the viability of cancer cells. In some embodiments, the cells are harvested during the logarithmic growth period, counted, and seeded at a specified count in the wells of a 96- or 384-well cell culture plate. In some embodiments, after seeding, the cells are incubated, e.g., at 37° C., 5% CO2 overnight. In some embodiments, the cells are treated with compounds, e.g., with serially diluted test compounds at 8-11 concentrations within a desired concentration range, e.g., from 1 nM-10 μM, for the generation of dose-response curves. In some embodiments, the plate is further incubated, e.g., for another 3-7 days in a humidified incubator at 37° C. and 5% CO2. In some embodiments, cell viability is assessed by luminescence measurement after addition of Cell Titer-Glo reagent (Promega, Madison, Wis.) according to the manufacturer's instructions. In some embodiments, cell viability IC50 values are calculated using XLFit, equation 201: y=A+((B−A)/(1+((x/C)^D))), where A=bottom, B=top, C=IC50, and D=slope. In some embodiments, the effects of the test compounds on the viability of other cell lines such as MDA-MB-436, MDA-MB-231, SUM149PT, HCC1395, and UWB1.289 are determined in an analogous method.
(§2) Compounds of the present disclosure were tested for their effects on the viability of cancer cells. DLD-1 wild-type and DLD-1 BRCA2(−/−) colorectal adenocarcinoma cells, an isogenic pair of cell lines differing in the presence and absence, respectively, of both BRCA2 alleles, were used. The cells were harvested during the logarithmic growth period, counted, and seeded at 50 cells/well for DLD-1 wild-type and 200 cells/well for DLD-1 BRCA2(−/−) in a 384-well cell culture plate. After seeding, cells were incubated at 37° C., 5% CO2 overnight. Cells were treated with serially diluted test compounds at 10 concentrations (e.g., from 1.5 nM-30 μM) for generation of dose response curves, or at a single concentration. The plate was further incubated for another 7 days in a humidified incubator at 37° C. and 5% CO2. Cell viability was assessed by luminescence measurement after addition of Cell Titer-Glo reagent (Promega, Madison, Wis.) according to the manufacturer's instructions. Cell viability IC50 values were calculated using XLFit, equation 201. y=A+((B−A)/(1+((x/C)^D))), where A=bottom, B=top, C=IC50, and D=slope. IC50 values are shown in Table B and are presented in ranges, in which “+++”<300 nM, 300 nM≤“++”<3000 nM, and “+”≥3000 nM. Values for percent inhibition at 10 μM are also shown in Table B and are presented in ranges, in which “***”≥67%, 33%: “**”≤67%, and “*”<33%. Effects of the test compounds on the viability of other cell lines such as MDA-MB-436, MDA-MB-231, SUM149PT, HCC1395, and UWB1.289 are determined in an analogous method.

[2] = system: DLD-1 BRCA2(−/−) colorectal adenocarcinoma cells; assay: Cell viability assay (Cell Titer-Glo, 7 days), DLD-1 BRCA2(−/−); format: cell-based; conditions: Homo sapiens, 168 h, DLD-1 BRCA2(−/−) cells
Text: as §1, §2

[3] = percent inhibition at 10 μM, fluorescence polarization, GST-tagged PARP2 20 nM, PARP1-FL probe 3 nM

Chain of recombinant human PARP1 (P09874 whole entry): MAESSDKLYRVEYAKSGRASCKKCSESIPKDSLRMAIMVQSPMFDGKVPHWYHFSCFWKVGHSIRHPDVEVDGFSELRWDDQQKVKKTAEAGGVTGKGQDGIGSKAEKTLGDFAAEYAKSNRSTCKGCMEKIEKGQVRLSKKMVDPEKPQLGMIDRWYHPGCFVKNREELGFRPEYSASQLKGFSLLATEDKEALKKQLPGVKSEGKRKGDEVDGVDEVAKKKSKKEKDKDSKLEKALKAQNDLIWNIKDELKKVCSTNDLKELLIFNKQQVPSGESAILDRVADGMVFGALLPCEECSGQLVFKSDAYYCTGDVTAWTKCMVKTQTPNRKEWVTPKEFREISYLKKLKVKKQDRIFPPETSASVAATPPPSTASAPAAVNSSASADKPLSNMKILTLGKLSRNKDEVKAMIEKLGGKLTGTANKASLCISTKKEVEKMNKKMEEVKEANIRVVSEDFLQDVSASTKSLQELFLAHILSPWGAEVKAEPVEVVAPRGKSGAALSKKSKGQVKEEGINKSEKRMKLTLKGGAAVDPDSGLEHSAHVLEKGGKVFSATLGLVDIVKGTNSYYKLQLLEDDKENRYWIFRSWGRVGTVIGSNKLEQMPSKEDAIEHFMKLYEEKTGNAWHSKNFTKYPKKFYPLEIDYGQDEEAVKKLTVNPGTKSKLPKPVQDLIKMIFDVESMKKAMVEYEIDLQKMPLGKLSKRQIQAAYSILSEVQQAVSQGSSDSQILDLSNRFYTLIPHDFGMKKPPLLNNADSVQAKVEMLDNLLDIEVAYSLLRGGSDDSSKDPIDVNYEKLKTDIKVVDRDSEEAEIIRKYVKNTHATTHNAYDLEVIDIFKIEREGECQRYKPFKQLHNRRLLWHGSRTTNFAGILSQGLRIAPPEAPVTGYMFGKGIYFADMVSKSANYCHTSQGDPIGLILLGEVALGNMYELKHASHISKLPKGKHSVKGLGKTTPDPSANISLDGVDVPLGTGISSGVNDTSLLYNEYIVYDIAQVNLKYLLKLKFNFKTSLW
Chain of recombinant human PARP2 (Q9UGN5 whole entry): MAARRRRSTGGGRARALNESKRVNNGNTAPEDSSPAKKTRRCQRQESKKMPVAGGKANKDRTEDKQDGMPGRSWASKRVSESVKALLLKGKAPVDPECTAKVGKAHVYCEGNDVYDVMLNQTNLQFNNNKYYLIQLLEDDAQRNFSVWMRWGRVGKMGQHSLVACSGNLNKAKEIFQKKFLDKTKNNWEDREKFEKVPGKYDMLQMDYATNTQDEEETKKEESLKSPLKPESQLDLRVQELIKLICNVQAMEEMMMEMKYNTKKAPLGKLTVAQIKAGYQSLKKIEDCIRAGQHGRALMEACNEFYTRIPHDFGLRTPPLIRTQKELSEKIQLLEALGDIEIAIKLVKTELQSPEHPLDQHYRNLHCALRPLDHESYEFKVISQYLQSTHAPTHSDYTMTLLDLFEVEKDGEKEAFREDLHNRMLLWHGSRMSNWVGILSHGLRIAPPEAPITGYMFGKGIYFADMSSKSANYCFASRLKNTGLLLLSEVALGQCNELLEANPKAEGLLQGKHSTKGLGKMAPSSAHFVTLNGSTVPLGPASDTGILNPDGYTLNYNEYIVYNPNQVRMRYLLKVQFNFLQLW

| Compound | IC50 (recombinant human PARP1) [nM] | inhibition at 10 µM (recombinant human PARP2; [3]) [%] | inhibition at 10 µM [1] [%] | IC50 [2] [nM] | inhibition at 10 µM (recombinant human PARP2) [%] |
| --- | --- | --- | --- | --- | --- |
| CCNC(=O)Nc1ncc(CN2CCN(c3ccc(C(=O)NC)nc3C)CC2)o1 [Compound 246, 5-(4-((2-(3-ethylureido)oxazol-5-yl)methyl)piperazin-1-yl)-N,6-dimethylpicolinamide] | < 100 | < 33 | < 33 | < 300 |  |
| CCNC(=O)Nc1cc(CN2CCN(c3cnc4c(NC)nccc4c3)CC2)ccn1 [Compound 257, 1-ethyl-3-(4-((4-(8-(methylamino)-1,7-naphthyridin-3-yl)piperazin-1-yl)methyl)pyridin-2-yl)urea] | < 100 | 33 to 67 | < 33 | 300 to 3000 |  |
| CNC(=O)c1ccc(N2CCN(Cc3ccnc(NC(=O)NC(C)C)c3)CC2)c(C)n1 [Compound 259, 5-(4-((2-(3-isopropylureido)pyridin-4-yl)methyl)piperazin-1-yl)-N,6-dimethylpicolinamide] | < 100 | < 33 | < 33 | 300 to 3000 |  |
| CCNC(=O)Nc1nccc(CN2CCN(c3ccc(C(=O)NC)nc3C)CC2)c1C [Compound 260, 5-(4-((2-(3-ethylureido)-3-methylpyridin-4-yl)methyl)piperazin-1-yl)-N,6-dimethylpicolinamide hemiformate] | < 100 |  | < 33 | 300 to 3000 | < 33 |
| CNC(=O)c1ccc(N2CCN(Cc3ccnc(NC(=O)NCCF)c3)CC2)c(C)n1 [Compound 261, 5-(4-((2-(3-(2-fluoroethyl)ureido)pyridin-4-yl)methyl)piperazin-1-yl)-N,6-dimethylpicolinamide] | < 100 | < 33 | < 33 | < 300 |  |
| CNC(=O)c1ccc(N2CCN(Cc3ccnc(NC(=O)NCC(F)F)c3)CC2)c(C)n1 [Compound 262, 5-(4-((2-(3-(2,2-difluoroethyl)ureido)pyridin-4-yl)methyl)piperazin-1-yl)-N,6-dimethylpicolinamide] | < 100 | < 33 | < 33 | < 300 |  |
| CCNC(=O)Nc1cc(CN2CCN(c3ccc(C#N)cn3)CC2)ccn1 [Compound 263, 1-(4-((4-(5-cyanopyridin-2-yl)piperazin-1-yl)methyl)pyridin-2-yl)-3-ethylurea] | < 100 | < 33 | < 33 | < 300 |  |
| CCNC(=O)Nc1cc(CN2CCN3c4ccc(C(=O)NC)nc4OC[C@H]3C2)ccn1 [Compound 264, (R)-3-((2-(3-ethylureido)pyridin-4-yl)methyl)-N-methyl-1,2,3,4,4a,5-hexahydropyrazino[1,2-d]pyrido[2,3-b][1,4]oxazine-8-carboxamide] | < 100 | 33 to 67 | < 33 | < 300 |  |
| CCNC(=O)Nc1cc(CN2CCN(c3ccc(C#N)nc3)CC2)ccn1 [Compound 267, 1-(4-((4-(6-cyanopyridin-3-yl)piperazin-1-yl)methyl)pyridin-2-yl)-3-ethylurea formate] | < 100 |  | < 33 | < 300 | < 33 |
| CCNC(=O)Nc1nccc(CN2CCN(c3ccc(C#N)cn3)CC2)c1F [Compound 268, 1-(4-((4-(5-cyanopyridin-2-yl)piperazin-1-yl)methyl)-3-fluoropyridin-2-yl)-3-ethylurea] | < 100 | < 33 | < 33 | < 300 |  |
| CCNC(=O)Nc1cc(CN2CCN(c3ccc(NC(C)=O)nc3C)CC2)ccn1 [Compound 269, N-(5-(4-((2-(3-ethylureido)pyridin-4-yl)methyl)piperazin-1-yl)-6-methylpyridin-2-yl)acetamide] | < 100 | < 33 | < 33 | < 300 |  |
| CCNC(=O)Nc1cc(CN2CCN(c3ccc(-c4ncc[nH]4)nc3C)CC2)ccn1 [Compound 272, 1-(4-((4-(6-(1H-imidazol-2-yl)-2-methylpyridin-3-yl)piperazin-1-yl)methyl)pyridin-2-yl)-3-ethylurea formate] | < 100 |  | < 33 | < 300 | < 33 |
